# Read-outs that look alike come from different tables or passages of the source.
# Molecular target: 11β-HSD1 (Homo sapiens, UniProt P28845)
# Assay: biochemical
# Settings: for IC50: IC50 Range, Biological Test Example 1, microsomes from CHO cells overexpressing human 11β-HSD1
# [1] = read-out: Average % inhibition at 100 nM, Biological Test Example 1, 100 nM
# [2] = read-out: Average % inhibition at 111.1 nM, Biological Test Example 1, 111.1 nM compound
# [3] = read-out: Average % inhibition at 100 nM, Biological Test Example 1, 100 nM compound
# Chain of 11β-HSD1 (P28845 whole entry): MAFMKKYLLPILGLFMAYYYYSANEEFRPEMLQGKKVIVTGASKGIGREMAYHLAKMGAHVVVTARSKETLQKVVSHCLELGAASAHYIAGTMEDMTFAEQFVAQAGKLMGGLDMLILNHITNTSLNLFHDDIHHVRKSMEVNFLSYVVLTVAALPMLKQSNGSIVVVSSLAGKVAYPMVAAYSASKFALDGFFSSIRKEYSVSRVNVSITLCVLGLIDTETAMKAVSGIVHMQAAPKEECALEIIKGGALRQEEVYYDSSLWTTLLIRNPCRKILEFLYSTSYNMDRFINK
IC50 [µM],inhibition at 0.1 µM [1] [%],inhibition at 0.1111 µM [2] [%],SMILES,further results
< 0.1,–,87.4,"O=C1OC(CCO)(c2ccc(F)cc2)CCN1c1ccc(F)c(-c2ccc(F)cc2F)c1 (stereo not drawn) [EXAMPLE 105, 6-(4-fluorophenyl)-6-(2-hydroxyethyl)-3-(2′,4′,6-trifluorobiphenyl-3-yl)-1,3-oxazinan-2-one]",–
< 0.1,95.1,–,"C[C@@H](c1ccc(Br)cc1)N1CC[C@](CCCO)(c2ccc(F)cc2F)OC1=O [EXAMPLE 366, (R)-3-((S)-1-(4-bromophenyl)ethyl)-6-(2,4-difluorophenyl)-6-(3-hydroxypropyl)-1,3-oxazinan-2-one]",–
< 0.1,–,87,"CC1(c2ccccc2)CCN(c2cccc(-c3cc(F)ccc3F)c2)C(=O)O1 (stereo not drawn) [EXAMPLE 26, 3-(2′,5′-difluorobiphenyl-3-yl)-6-methyl-6-phenyl-1,3-oxazinan-2-one]",inhibition at 0.1 µM [3]: 88.2%
< 0.1,98,–,"CC(=O)N(C)CC[C@]1(c2ccccc2)CCN([C@@H](C)c2ccc(Br)cc2)C(=O)O1 [EXAMPLE 586, N-(2-((R)-3-((S)-1-(4-bromophenyl)ethyl)-2-oxo-6-phenyl-1,3-oxazinan-6-yl)ethyl)-N-methylacetamide]",–
< 0.1,68.7,–,"CCOC(=O)NCC[C@]1(c2ccc(F)cc2)CCN([C@@H](C)c2ccc(Br)cc2)C(=O)O1 [EXAMPLE 620, ethyl 2-((R)-3-((S)-1-(4-bromophenyl)ethyl)-6-(4-fluorophenyl)-2-oxo-1,3-oxazinan-6-yl)ethylcarbamate]",–
< 0.1,–,–,"C[C@@H](c1ccc(Br)cc1)N1CC[C@](CCCO)(c2ccccc2)OC1=O [EXAMPLE 392, (R)-3-((S)-1-(4-bromophenyl)ethyl)-6-(3-hydroxypropyl)-6-phenyl-1,3-oxazinan-2-one]",–
< 0.1,96.3,–,"C[C@@H](c1ccc(C(F)(F)F)cc1)N1CC[C@](CCCO)(c2ccccc2)OC1=O [EXAMPLE 532, (R)-6-(3-hydroxypropyl)-6-phenyl-3-((S)-1-(4-(trifluoromethyl)phenyl)ethyl)-1,3-oxazinan-2-one]",–
< 0.1,–,–,"CC(C)C1(CCCO)CCN([C@@H](C)c2ccc(Br)cc2)C(=O)O1 (single isomer, unassigned) [EXAMPLE 200 Isomer 1]",–
< 0.1,–,70,"O=C1OC(CCO)(c2ccccc2)CCN1c1cccc(Br)c1 (stereo not drawn) [EXAMPLE 74, 3-(3-bromophenyl)-6-(2-hydroxyethyl)-6-phenyl-1,3-oxazinan-2-one]",–
< 0.1,–,–,"COc1ccc([C@H](C)N2CC[C@](CCNS(C)(=O)=O)(c3ccc(F)cc3)OC2=O)cc1 [EXAMPLE 301, N-(2-((S)-6-(4-fluorophenyl)-3-((S)-1-(4-methoxyphenyl)ethyl)-2-oxo-1,3-oxazinan-6-yl)ethyl)methanesulfonamide]",inhibition at 0.1 µM [3]: 86.7%
< 0.1,–,–,"C=CCC1(c2ccc(F)cc2)CCN([C@@H](CC)c2ccc(Br)cc2)C(=O)O1 (single isomer, unassigned) [EXAMPLE 130 Isomer 1]",inhibition at 0.1 µM [3]: 92.2%
< 0.1,89.2,–,"C[C@@H](c1ccc(Cl)cc1)N1CC[C@](CCCNS(C)(=O)=O)(c2ccc(F)cc2)OC1=O [EXAMPLE 384, N-(3-((R)-3-((S)-1-(4-chlorophenyl)ethyl)-6-(4-fluorophenyl)-2-oxo-1,3-oxazinan-6-yl)propyl)methanesulfonamide]",–

# Second part, the molecule before the results:
SMILES,IC50 [µM],inhibition at 0.1 µM [1] [%],inhibition at 0.1111 µM [2] [%],further results
"CC(CO)C[C@]1(c2ccc(F)cc2)CCN([C@@H](C)c2ccc(Br)cc2)C(=O)O1 (single isomer, unassigned) [EXAMPLE 577 Isomer 1]",< 0.1,99.5,–,–
"CC1(c2ccccc2)CCN(c2cccc(-c3cccs3)c2)C(=O)O1 (stereo not drawn) [EXAMPLE 36, 6-methyl-6-phenyl-3-(3-(thiophen-2-yl)phenyl)-1,3-oxazinan-2-one]",< 0.1,–,63.3,–
"CN(C)C(=O)c1ccc(-c2cccc(N3CCC(C)(c4ccccc4)OC3=O)c2)cc1 (stereo not drawn) [EXAMPLE 42, N,N-dimethyl-3′-(6-methyl-2-oxo-6-phenyl-1,3-oxazinan-3-yl)biphenyl-4-carboxamide]",0.1 to 1,–,36.7,–
"CC1(c2ccccc2)CCN(c2cccc(-c3ccc(CO)cc3)c2)C(=O)O1 (stereo not drawn) [EXAMPLE 48, 3-(4′-(hydroxymethyl)biphenyl-3-yl)-6-methyl-6-phenyl-1,3-oxazinan-2-one]",0.1 to 1,–,37,–
"C[C@@H](c1ccc(-c2ccc(F)cc2)cc1)N1CC[C@](CCN2CCCC2)(c2ccc(F)cc2)OC1=O [EXAMPLE 464, (R)-3-((S)-1-(4′-fluorobiphenyl-4-yl)ethyl)-6-(4-fluorophenyl)-6-(2-(pyrrolidin-1-yl)ethyl)-1,3-oxazinan-2-one]",< 0.1,80.2,–,–
"O=C1OC(CCO)(c2ccccc2F)CCN1c1ccc(Cl)c(-c2ccc(F)cc2)n1 (stereo not drawn) [EXAMPLE 133, 3-(5-chloro-6-(4-fluorophenyl)pyridin-2-yl)-6-(2-fluorophenyl)-6-(2-hydroxyethyl)-1,3-oxazinan-2-one]",< 0.1,–,–,inhibition at 0.1 µM (read-out: Average % inhibition at 100 nM): 85.8%; inhibition at 0.1111 µM (read-out: Average % inhibition at 111.1 nM): 95.4%
"O=C1OC(CC(O)CO)(c2ccccc2)CCN1c1cccc(-c2ccc(F)cc2F)c1 (stereo not drawn) [EXAMPLE 77, 3-(2′,4′-difluorobiphenyl-3-yl)-6-(2,3-dihydroxypropyl)-6-phenyl-1,3-oxazinan-2-one]",< 0.1,–,89.2,inhibition at 0.1 µM [3]: 88.7%
"C[C@@H](c1cccc(CO)c1)N1CC[C@](CCCO)(c2ccc(F)cc2)OC1=O [EXAMPLE 363, (R)-6-(4-fluorophenyl)-3-((S)-1-(3-(hydroxymethyl)phenyl)ethyl)-6-(3-hydroxypropyl)-1,3-oxazinan-2-one]",< 0.1,74.5,–,–
"O=C1OC(CCCO)(c2ccc(F)cc2)CCN1Cc1ccccc1Br (stereo not drawn) [EXAMPLE 351, 3-(2-bromobenzyl)-6-(4-fluorophenyl)-6-(3-hydroxypropyl)-1,3-oxazinan-2-one]",< 0.1,83.1,–,–
"COc1ccc([C@H](C)N2CCC(C)(c3ccccc3)OC2=O)cc1 (single isomer, unassigned) [EXAMPLE 85 Isomer 1]",< 0.1,–,93.1,–
"COc1cccc(-c2cccc(N3CCC(C)(c4ccccc4)OC3=O)c2)c1 (stereo not drawn) [EXAMPLE 34, 3-(3′-methoxybiphenyl-3-yl)-6-methyl-6-phenyl-1,3-oxazinan-2-one]",< 0.1,–,72,–
"O=C1O[C@@](CCO)(c2ccccc2)CCN1c1cccc(-c2ccc(F)cc2)[n+]1[O-] [EXAMPLE 126, (S)-2-(4-fluorophenyl)-6-(6-(2-hydroxyethyl)-2-oxo-6-phenyl-1,3-oxazinan-3-yl)pyridine 1-oxide]",< 0.1,–,80.7,inhibition at 0.1 µM [3]: 79%
"Cc1ccc([C@H](C)N2CC[C@](CCO)(c3ccc(F)cc3)OC2=O)cc1 [EXAMPLE 421, (S)-6-(4-fluorophenyl)-6-(2-hydroxyethyl)-3-((S)-1-p-tolylethyl)-1,3-oxazinan-2-one]",< 0.1,96.1,–,–
"CC1(c2ccccc2)CCN(c2cccc(-c3ccccc3S(C)(=O)=O)c2)C(=O)O1 (stereo not drawn) [EXAMPLE 15, 6-methyl-3-(2′-(methylsulfonyl)biphenyl-3-yl)-6-phenyl-1,3-oxazinan-2-one]",0.1 to 1,–,38.5,–

# — US8575156B2, “Cyclic inhibitors of 11β-hydroxysteroid dehydrogenase 1” (Vitae Pharmaceuticals, Inc., priority 2007, dated 2013)
